Laboratory results from ChEMBL document CHEMBL3616372, “A novel sesquiterpene and three new phenolic compounds from the rhizomes of Acorus tatarinowii Schott” (Bioorg Med Chem Lett, 2015).

Experiments:
Assay type in all cases: cell-based
[1] = biological target: Sodium-dependent serotonin transporter (Homo sapiens) (UniProt P31645); test: Inhibition of human SERT expressed in HEK293 cells using 4-[4-(Dimethylamino)phenyl]-1-methyl pyridinium as substrate assessed as fluorescent intensity at 1 uM after 3 hrs relative to control
Chain of Sodium-dependent serotonin transporter (Homo sapiens) (P31645 whole entry, looked up): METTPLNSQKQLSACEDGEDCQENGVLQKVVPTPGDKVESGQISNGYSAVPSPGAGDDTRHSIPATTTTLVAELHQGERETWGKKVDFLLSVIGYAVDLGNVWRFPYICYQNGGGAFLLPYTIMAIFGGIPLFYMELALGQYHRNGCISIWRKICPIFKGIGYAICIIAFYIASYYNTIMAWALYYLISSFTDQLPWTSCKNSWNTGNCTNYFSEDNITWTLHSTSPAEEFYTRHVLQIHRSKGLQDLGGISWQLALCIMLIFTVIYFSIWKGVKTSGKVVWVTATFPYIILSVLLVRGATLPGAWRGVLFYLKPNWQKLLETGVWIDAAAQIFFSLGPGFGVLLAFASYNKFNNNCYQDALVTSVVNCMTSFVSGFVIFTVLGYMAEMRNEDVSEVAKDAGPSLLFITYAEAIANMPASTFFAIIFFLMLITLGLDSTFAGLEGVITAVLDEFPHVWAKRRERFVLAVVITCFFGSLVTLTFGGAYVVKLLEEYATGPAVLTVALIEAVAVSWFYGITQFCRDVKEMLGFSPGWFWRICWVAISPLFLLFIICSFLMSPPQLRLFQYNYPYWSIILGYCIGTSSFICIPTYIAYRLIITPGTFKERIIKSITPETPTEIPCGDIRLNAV

[2] = biological target: Sodium-dependent serotonin transporter (Homo sapiens) (UniProt P31645); test: Inhibition of human SERT expressed in HEK293 cells using 4-[4-(Dimethylamino)phenyl]-1-methyl pyridinium as substrate assessed as fluorescent intensity at 0.1 uM after 3 hrs relative to control
[3] = biological target: Sodium-dependent serotonin transporter (Homo sapiens) (UniProt P31645); test: Inhibition of human SERT expressed in HEK293 cells using 4-[4-(Dimethylamino)phenyl]-1-methyl pyridinium as substrate assessed as fluorescent intensity at 10 uM after 3 hrs relative to control

## CN1c2ccccc2C(NCCCCCCC(=O)O)c2ccc(Cl)cc2S1(=O)=O (centres undefined)
[1]
  RFU: 1.11

## COC(=O)CCCNC(=O)/C=C\c1ccc(O)c(OC)c1
[1]
  RFU: 1.08
[2]
  RFU: 1.04
[3]
  RFU: 1.06

## COc1cc([C@H]2Oc3c(OC)cc(C(=O)O)cc3[C@@H]2CO)ccc1O
[1]
  RFU: 1.01
[2]
  RFU: 1.04
[3]
  RFU: 1.09

## COc1cc(C[C@@H](CO)c2cc(C(=O)O)cc(OC)c2O)ccc1O
[1]
  RFU: 0.997
[2]
  RFU: 1.01
[3]
  RFU: 0.873

## COc1cc([C@@H]2Oc3c(OC)cc(C(=O)O)cc3[C@H]2CO)ccc1O
[1]
  RFU: 1.03
[2]
  RFU: 0.984
[3]
  RFU: 1.06

## COC(=O)CCCNC(=O)/C=C/c1ccc(O)c(OC)c1
[1]
  RFU: 1.07
[2]
  RFU: 1.02
[3]
  RFU: 1.04

## CC(C)C[C@]12C[C@]3(O)O[C@@]1(OC(=O)C[C@H]2C)[C@H](O)[C@]3(C)O
[1]
  RFU: 0.883
[2]
  RFU: 0.858
[3]
  RFU: 0.928
